Assay: Single-dose efficacy in DIO mice: plasma FGF21
Conditions: 0.3 nmol/kg s.c., 26 hours after treatment

Dulaglutide: the GLP1R agonist, dulaglutide [reference compound]
Plasma FGF21: 0.8 ± 0.2 ng/mL
